In patent publication US6479435B1, “Diaryl ethers and processes for their preparation and herbicidal and desiccant compositions containing them” (ISK Americas Incorporated, priority 1997, dated 2002):

Tests used:
Assay type in all cases: in vivo
[1] = system: lambsquarters (Chenopodium album, CHEAL); assay: Pre-emerge greenhouse herbicide test, phytotoxicity rating; settings: 14 days after application, rating scale 0-100
Procedure, shortened: (§1)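 Seeds sown in sandy loam mix one day before track-sprayer application of compounds in acetone at 125–1000 g ai/ha (187 l/ha), then surface-watered to incorporate and bottom-watered. Visual rating 14 days after application on a 0–100 scale (0 = no damage, 100 = all plants dead).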

[2] = system: large crabgrass (Digitaria sanguinalis, DIGSA); assay: as above; settings: 14 days after application, rating scale 0-100
Procedure, shortened: as §1

[3] = system: sicklepod (Cassia obtusifolia, CASOB); assay: as above; settings: 14 days after application, rating scale 0-100
Procedure, shortened: as §1

[4] = system: velvetleaf (Abutilon theophrasti, ABUTH); assay: as above; settings: 14 days after application, rating scale 0-100
Procedure, shortened: as §1

[5] = system: barnyardgrass (Echinochloa crusgalli, ECHCG); assay: as above; settings: 14 days after application, rating scale 0-100
Procedure, shortened: as §1

[6] = system: Johnsongrass (Sorghum halepense, SORHA); assay: as above; settings: 14 days after application, rating scale 0-100
Procedure, shortened: as §1

[7] = system: redroot pigweed (Amaranthus retroflexus, AMARE); assay: as above; settings: 14 days after application, rating scale 0-100
Procedure, shortened: as §1

[8] = system: green foxtail (Setaria viridis, SETVI); assay: as above; settings: 14 days after application, rating scale 0-100
Procedure, shortened: as §1

[9] = system: common ragweed (Ambrosia artemisiifolia L., AMBEL); assay: as above; settings: 14 days after application, rating scale 0-100
Procedure, shortened: as §1

[10] = system: ivyleaf morningglory (Ipomoea hederacea, IPOHE); assay: as above; settings: 14 days after application, rating scale 0-100
Procedure, shortened: as §1

[11] = system: soybean (Glycine max L., var. Pella 86, SOY); assay: Post-emerge greenhouse test, crop damage rating; settings: 14 days after application
Procedure, shortened: (§2)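 Compounds in acetone with 0.25% v/v non-ionic surfactant were track-sprayed at 187 l/ha over plants at the 2-3 leaf stage, at 63 to 1000 g ai/ha. Pots were bottom-watered. Injury was scored visually 14 days later on a 0-100 scale, where 0 is no damage and 100 is complete plant death.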

[12] = system: field corn (Zea mays L., var. Dekalb 535, CORN); assay: Post-emerge greenhouse test, crop damage rating; settings: 14 days after application
Procedure, shortened: as §2

[13] = system: upland rice (Oryza sp., var.Tebonnet, RICE); assay: Post-emerge greenhouse test, crop damage rating; settings: 14 days after application
Procedure, shortened: as §2

[14] = system: field corn (Zea mays L., var. Dekalb 535, CORN); assay: Pre-emerge greenhouse test, crop damage rating; settings: 14 days after application, rating scale 0-100
Procedure, shortened: as §1

[15] = system: upland rice (Oryza sp., var.Tebonnet, RICE); assay: Pre-emerge greenhouse test, crop damage rating; settings: 14 days after application, rating scale 0-100
Procedure, shortened: as §1

[16] = system: common ragweed (Ambrosia artemisiifolia L., AMBEL); assay: Post-emerge greenhouse herbicide test, phytotoxicity rating; settings: 14 days after application
Procedure, shortened: as §2

[17] = system: soybean (Glycine max L., var. Pella 86, SOY); assay: Pre-emerge greenhouse test, crop damage rating; settings: 14 days after application, rating scale 0-100
Procedure, shortened: as §1

[18] = system: lambsquarters (Chenopodium album, CHEAL); assay: Post-emerge greenhouse herbicide test, phytotoxicity rating; settings: 14 days after application
Procedure, shortened: as §2

[19] = system: large crabgrass (Digitaria sanguinalis, DIGSA); assay: as above; settings: 14 days after application
Procedure, shortened: as §2

[20] = system: velvetleaf (Abutilon theophrasti, ABUTH); assay: as above; settings: 14 days after application
Procedure, shortened: as §2

[21] = system: barnyardgrass (Echinochloa crusgalli, ECHCG); assay: as above; settings: 14 days after application
Procedure, shortened: as §2

[22] = system: Johnsongrass (Sorghum halepense, SORHA); assay: as above; settings: 14 days after application
Procedure, shortened: as §2

[23] = system: redroot pigweed (Amaranthus retroflexus, AMARE); assay: as above; settings: 14 days after application
Procedure, shortened: as §2

[24] = system: green foxtail (Setaria viridis, SETVI); assay: as above; settings: 14 days after application
Procedure, shortened: as §2

[25] = system: ivyleaf morningglory (Ipomoea hederacea, IPOHE); assay: as above; settings: 14 days after application
Procedure, shortened: as §2

What does the source list for `O=c1n(CCCF)nnn1-c1cc(Oc2ncccc2C(F)(F)F)c(Cl)cc1Cl` [Compound 6-7]?
phytotoxicity rating CHEAL ([1]; 125 g ai/ha): 80; phytotoxicity rating CHEAL ([1]; 500 g ai/ha): 90; phytotoxicity rating DIGSA ([2]; 125 g ai/ha): 40; phytotoxicity rating DIGSA ([2]; 500 g ai/ha): 70; phytotoxicity rating CASOB ([3]; 125 g ai/ha): 0; phytotoxicity rating CASOB ([3]; 500 g ai/ha): 60; phytotoxicity rating ABUTH ([4]; 125 g ai/ha): 0; phytotoxicity rating ABUTH ([4]; 500 g ai/ha): 20; phytotoxicity rating ECHCG ([5]; 125 g ai/ha): 0; phytotoxicity rating ECHCG ([5]; 500 g ai/ha): 50; phytotoxicity rating SORHA ([6]; 125 g ai/ha): 20; phytotoxicity rating SORHA ([6]; 500 g ai/ha): 40; phytotoxicity rating AMARE ([7]; 500 g ai/ha): 100; phytotoxicity rating SETVI ([8]; 125 g ai/ha): 80; phytotoxicity rating SETVI ([8]; 500 g ai/ha): 100; phytotoxicity rating AMBEL ([9]; 125 g ai/ha): 30; phytotoxicity rating AMBEL ([9]; 500 g ai/ha): 0; phytotoxicity rating IPOHE ([10]; 125 g ai/ha): 0; phytotoxicity rating IPOHE ([10]; 500 g ai/ha): 30; SOY crop damage rating (0-100) ([11]; 63 g al/ha): 0; SOY crop damage rating (0-100) ([11]; 500 g al/ha): 30; CORN crop damage rating (0-100) ([12]; 63 g al/ha): 0; CORN crop damage rating (0-100) ([12]; 500 g al/ha): 10; RICE crop damage rating (0-100) ([13]; 63 g al/ha): 0; RICE crop damage rating (0-100) ([13]; 500 g al/ha): 50; crop damage rating CORN ([14]; 125 g ai/ha): 0; crop damage rating CORN ([14]; 500 g ai/ha): 30; crop damage rating RICE ([15]; 125 g ai/ha): 0; crop damage rating RICE ([15]; 500 g ai/ha): 40; AMBEL phytotoxicity rating (0-100) ([16]; 63 g al/ha): 0; AMBEL phytotoxicity rating (0-100) ([16]; 500 g al/ha): 30; crop damage rating SOY ([17]; 125 g ai/ha): 80; crop damage rating SOY ([17]; 500 g ai/ha): 90; CHEAL phytotoxicity rating (0-100) ([18]; 63 g al/ha): 50; CHEAL phytotoxicity rating (0-100) ([18]; 500 g al/ha): 80; DIGSA phytotoxicity rating (0-100) ([19]; 63 g al/ha): 0; DIGSA phytotoxicity rating (0-100) ([19]; 500 g al/ha): 10; ABUTH phytotoxicity rating (0-100) ([20]; 63 g al/ha): 0; ABUTH phytotoxicity rating (0-100) ([20]; 500 g al/ha): 70; ECHCG phytotoxicity rating (0-100) ([21]; 63 g al/ha): 0; ECHCG phytotoxicity rating (0-100) ([21]; 500 g al/ha): 50; SORHA phytotoxicity rating (0-100) ([22]; 63 g al/ha): 0; SORHA phytotoxicity rating (0-100) ([22]; 500 g al/ha): 30; AMARE phytotoxicity rating (0-100) ([23]; 63 g al/ha): 70; AMARE phytotoxicity rating (0-100) ([23]; 500 g al/ha): 80; SETVI phytotoxicity rating (0-100) ([24]; 63 g al/ha): 20; SETVI phytotoxicity rating (0-100) ([24]; 500 g al/ha): 30; IPOHE phytotoxicity rating (0-100) ([25]; 63 g al/ha): 0; IPOHE phytotoxicity rating (0-100) ([25]; 500 g al/ha): 50

How did the “phytotoxicity rating CHEAL” value ([1]; 125 g ai/ha) turn out when `O=c1n(CCCF)nnn1-c1cc(Oc2ncccn2)c(Cl)cc1Cl` [Compound 6-14] was run?
The value was 100.

What about the “phytotoxicity rating CHEAL” value ([1]; 500 g ai/ha) of the same compound?
Its value is 100.

And the “phytotoxicity rating DIGSA” value ([2]; 125 g ai/ha)?
The value was 90.

And the “phytotoxicity rating DIGSA” value ([2]; 500 g ai/ha)?
The value was 100.

What about the “phytotoxicity rating CASOB” value ([3]; 125 g ai/ha) of the same compound?
Its value is 60.

And the “phytotoxicity rating CASOB” value ([3]; 500 g ai/ha)?
Its value is 90.

And the “phytotoxicity rating ABUTH” value ([4]; 125 g ai/ha)?
Its value is 100.

And the “phytotoxicity rating ABUTH” value ([4]; 500 g ai/ha)?
The value was 100.

And the “phytotoxicity rating ECHCG” value ([5]; 125 g ai/ha)?
Its value is 60.

What about the “phytotoxicity rating ECHCG” value ([5]; 500 g ai/ha) of the same compound?
Its value is 99.

What about the “phytotoxicity rating SORHA” value ([6]; 125 g ai/ha) of the same compound?
Its value is 80.

What about the “phytotoxicity rating SORHA” value ([6]; 500 g ai/ha) of the same compound?
The value was 100.

And the “phytotoxicity rating AMARE” value ([7]; 125 g ai/ha)?
Its value is 100.

What about the “phytotoxicity rating AMARE” value ([7]; 500 g ai/ha) of the same compound?
The value was 100.

What about the “phytotoxicity rating SETVI” value ([8]; 125 g ai/ha) of the same compound?
The value was 100.

And the “phytotoxicity rating SETVI” value ([8]; 500 g ai/ha)?
The value was 100.

And the “phytotoxicity rating AMBEL” value ([9]; 125 g ai/ha)?
The value was 20.

What about the “phytotoxicity rating AMBEL” value ([9]; 500 g ai/ha) of the same compound?
Its value is 95.

What about the “phytotoxicity rating IPOHE” value ([10]; 125 g ai/ha) of the same compound?
Its value is 60.

What about the “phytotoxicity rating IPOHE” value ([10]; 500 g ai/ha) of the same compound?
Its value is 95.

What about the “SOY crop damage rating (0-100)” value ([11]; 63 g al/ha) of the same compound?
The value was 50.

What about the “SOY crop damage rating (0-100)” value ([11]; 500 g al/ha) of the same compound?
Its value is 90.

And the “CORN crop damage rating (0-100)” value ([12]; 63 g al/ha)?
Its value is 0.

And the “CORN crop damage rating (0-100)” value ([12]; 500 g al/ha)?
The value was 20.

What about the “RICE crop damage rating (0-100)” value ([13]; 63 g al/ha) of the same compound?
Its value is 20.

And the “RICE crop damage rating (0-100)” value ([13]; 500 g al/ha)?
The value was 50.

And the “crop damage rating CORN” value ([14]; 125 g ai/ha)?
The value was 20.

And the “crop damage rating CORN” value ([14]; 500 g ai/ha)?
The value was 40.

And the “crop damage rating RICE” value ([15]; 125 g ai/ha)?
Its value is 30.

What about the “crop damage rating RICE” value ([15]; 500 g ai/ha) of the same compound?
Its value is 80.

What about the “AMBEL phytotoxicity rating (0-100)” value ([16]; 63 g al/ha) of the same compound?
The value was 0.

What about the “AMBEL phytotoxicity rating (0-100)” value ([16]; 500 g al/ha) of the same compound?
The value was 50.

And the “crop damage rating SOY” value ([17]; 125 g ai/ha)?
The value was 10.

What about the “crop damage rating SOY” value ([17]; 500 g ai/ha) of the same compound?
The value was 80.

What about the “CHEAL phytotoxicity rating (0-100)” value ([18]; 63 g al/ha) of the same compound?
The value was 70.

And the “CHEAL phytotoxicity rating (0-100)” value ([18]; 500 g al/ha)?
Its value is 95.

What about the “DIGSA phytotoxicity rating (0-100)” value ([19]; 63 g al/ha) of the same compound?
Its value is 0.

And the “DIGSA phytotoxicity rating (0-100)” value ([19]; 500 g al/ha)?
The value was 30.

What about the “ABUTH phytotoxicity rating (0-100)” value ([20]; 63 g al/ha) of the same compound?
Its value is 70.

What about the “ABUTH phytotoxicity rating (0-100)” value ([20]; 500 g al/ha) of the same compound?
Its value is 100.

What about the “ECHCG phytotoxicity rating (0-100)” value ([21]; 63 g al/ha) of the same compound?
The value was 0.

And the “ECHCG phytotoxicity rating (0-100)” value ([21]; 500 g al/ha)?
The value was 60.

What about the “SORHA phytotoxicity rating (0-100)” value ([22]; 63 g al/ha) of the same compound?
Its value is 30.

What about the “SORHA phytotoxicity rating (0-100)” value ([22]; 500 g al/ha) of the same compound?
The value was 90.

And the “AMARE phytotoxicity rating (0-100)” value ([23]; 63 g al/ha)?
The value was 20.

What about the “AMARE phytotoxicity rating (0-100)” value ([23]; 500 g al/ha) of the same compound?
Its value is 100.

What about the “SETVI phytotoxicity rating (0-100)” value ([24]; 63 g al/ha) of the same compound?
Its value is 0.

What about the “SETVI phytotoxicity rating (0-100)” value ([24]; 500 g al/ha) of the same compound?
Its value is 70.

What about the “IPOHE phytotoxicity rating (0-100)” value ([25]; 63 g al/ha) of the same compound?
Its value is 50.

What about the “IPOHE phytotoxicity rating (0-100)” value ([25]; 500 g al/ha) of the same compound?
Its value is 100.
